One assay has as its target T1, Aurora B (Homo sapiens, UniProt Q96GD4).
T1 construct: Active Aurora B enzyme (recombinant residues 1-344)
Put plainly: Aurora B enzyme inhibition (time-resolved fluorescence, histone H3 peptide). In kind it is biochemical. The note with it: 1 mM ATP. A digest of the protocol:
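Recombinant Aurora B (residues 1-344) with GST-INCENP phosphorylated biotinylated histone H3 (1-21) peptide at 1 mM ATP in HEPES pH 7.4 with MgCl2, orthovanadate and Triton X-100 for 1 h. After EDTA stop, the phosphopeptide was detected by TR-FRET (Eu-cryptate anti-phospho-H3 / SA-APC, 665/615 nm ratio). IC50 from an exponential fit.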

A further assay has as its system NCI-H1299 cells. Put plainly: Induction of polyploidy in H1299. In kind it is cell-based, Human. The note with it: Homo sapiens; NCI-H1299, 48 hours; read-out: EC15 (concentration of inhibitor necessary to induce polyploidy in 15% of cells). The essentials:
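NCI-H1299 cells in RPMI 1640/10% FCS were treated with inhibitor concentrations in duplicate for 48 h at 37 C, then formalin-fixed and Hoechst-stained. Nuclear area was measured by high-content imaging, with polyploid (≥4N) defined as >750 μ^2. EC15 was derived by least-squares fit of log dose-response.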

For the next assay, the target named is KDR (Homo sapiens, UniProt P35968). In words: KDR cellular assay (KDR receptor phosphorylation ELISA). The format is cell-based. Conditions: KDR transfected 3T3 (embryonic mouse) cells, VEGF stimulated; read-out: IC50 inhibition of KDR phosphorylation. Further details: expressed in transfected cells; host or cells: 3T3 (embryonic mouse) cells. A digest of the protocol:
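KDR-transfected mouse 3T3 cells treated 20 min at 37° C with half-log compound dilutions, then stimulated 10 min with VEGF (100 ng/ml solution). Lysates captured on anti-KDR plates; phosphorylation by biotin antibody/streptavidin-HRP ELISA at 450 nm. IC50 by non-linear regression.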
For orientation: In an ELISA, binding on a coated surface is turned into a signal by an enzyme label.

As usually defined, the Ki is the equilibrium dissociation constant of an inhibitor or competing ligand from its target. In general, IC50 refers to the point on the concentration scale where inhibition reaches its midpoint.

Where only a bound is given, the exact number is not on record here.

T1 sequence (Q96GD4 whole entry, the tested form may be a part): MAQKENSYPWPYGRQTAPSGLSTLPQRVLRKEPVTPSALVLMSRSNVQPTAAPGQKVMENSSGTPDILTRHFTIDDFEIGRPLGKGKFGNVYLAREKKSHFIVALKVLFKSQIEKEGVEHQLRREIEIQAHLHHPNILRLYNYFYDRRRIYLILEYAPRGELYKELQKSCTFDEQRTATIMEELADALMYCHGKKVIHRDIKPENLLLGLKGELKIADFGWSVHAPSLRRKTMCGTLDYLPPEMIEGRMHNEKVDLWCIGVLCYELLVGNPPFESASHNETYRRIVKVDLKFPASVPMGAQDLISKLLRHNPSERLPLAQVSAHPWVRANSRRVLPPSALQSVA
T1 sequence (Q9NQS7 826-918 partner limits assumed): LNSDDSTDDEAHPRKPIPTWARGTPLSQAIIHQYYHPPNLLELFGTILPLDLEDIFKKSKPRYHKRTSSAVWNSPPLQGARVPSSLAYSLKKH
Sequence of KDR (P35968 20-1356): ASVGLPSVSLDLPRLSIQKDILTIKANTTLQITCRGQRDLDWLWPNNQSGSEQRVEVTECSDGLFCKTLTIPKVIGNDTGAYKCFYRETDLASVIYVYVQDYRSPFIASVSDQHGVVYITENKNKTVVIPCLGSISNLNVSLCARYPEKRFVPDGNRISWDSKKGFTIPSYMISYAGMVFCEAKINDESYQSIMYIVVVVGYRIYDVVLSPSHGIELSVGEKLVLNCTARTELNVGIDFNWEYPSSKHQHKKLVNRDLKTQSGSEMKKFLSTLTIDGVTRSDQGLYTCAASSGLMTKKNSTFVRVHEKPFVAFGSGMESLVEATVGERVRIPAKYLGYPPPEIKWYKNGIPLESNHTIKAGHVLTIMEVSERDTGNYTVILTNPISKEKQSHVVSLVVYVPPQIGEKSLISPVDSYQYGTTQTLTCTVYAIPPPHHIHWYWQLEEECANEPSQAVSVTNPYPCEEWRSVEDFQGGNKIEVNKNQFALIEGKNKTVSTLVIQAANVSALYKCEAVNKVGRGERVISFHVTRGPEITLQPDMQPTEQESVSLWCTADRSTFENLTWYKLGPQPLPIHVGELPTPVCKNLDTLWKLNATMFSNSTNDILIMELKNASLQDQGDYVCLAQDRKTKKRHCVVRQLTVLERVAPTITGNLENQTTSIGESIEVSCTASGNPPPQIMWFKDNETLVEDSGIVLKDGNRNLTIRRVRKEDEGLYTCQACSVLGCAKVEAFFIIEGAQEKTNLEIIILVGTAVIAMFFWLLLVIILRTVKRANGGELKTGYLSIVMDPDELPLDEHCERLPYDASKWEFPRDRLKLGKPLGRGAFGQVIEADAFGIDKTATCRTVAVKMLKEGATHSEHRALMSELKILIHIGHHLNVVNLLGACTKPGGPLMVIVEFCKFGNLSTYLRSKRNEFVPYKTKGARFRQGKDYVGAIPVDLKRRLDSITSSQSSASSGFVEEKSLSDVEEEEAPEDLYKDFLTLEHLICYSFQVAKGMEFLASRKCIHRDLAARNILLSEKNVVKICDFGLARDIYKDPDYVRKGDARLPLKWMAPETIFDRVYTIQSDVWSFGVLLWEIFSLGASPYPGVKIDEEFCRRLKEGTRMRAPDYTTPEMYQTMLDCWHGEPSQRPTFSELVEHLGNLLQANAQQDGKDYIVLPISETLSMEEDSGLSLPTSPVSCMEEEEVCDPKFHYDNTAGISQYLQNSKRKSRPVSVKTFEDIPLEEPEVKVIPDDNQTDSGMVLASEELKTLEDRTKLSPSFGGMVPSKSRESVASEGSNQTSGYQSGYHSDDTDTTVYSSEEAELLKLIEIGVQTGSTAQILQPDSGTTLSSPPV

The compound `COCCn1cc(Nc2ncc(Cl)c(N[C@H]3[C@@H](C(N)=O)[C@@H]4C=C[C@H]3C4)n2)cn1` [Example 96, (1S,2S,3R,4R)-3-[(5-chloro-2-{[1-(2-methoxyethyl)-1H-pyrazol-4-yl]amino}pyrimidin-4-yl)amino]bicyclo[2.2.1]hept-5-ene-2-carboxamide] came in with a Ki at Aurora B of less than 100 nM. The EC15 with NCI-H1299 cells lay in the range of 100 to 1000 nM. In addition, the IC50 on KDR is less than 100 nM.
The compound `CN1CCN(CCn2cc(Nc3ncc(Br)c(N[C@H]4[C@@H](C(N)=O)[C@@H]5C=C[C@H]4C5)n3)cn2)CC1` [Example 94, (1S,2S,3R,4R)-3-{[5-bromo-2-({1-[2-(4-methylpiperazin-1-yl)ethyl]-1H-pyrazol-4-yl}amino)pyrimidin-4-yl]amino}bicyclo[2.2.1]hept-5-ene-2-carboxamide] came in with a Ki at Aurora B of less than 100 nM. For the same compound, the EC15 with NCI-H1299 cells is less than 100 nM. Further, the IC50 at KDR was less than 100 nM.
As to `NC(=O)[C@@H]1[C@H](Nc2nc(Nc3cnn(C4CCNCC4)c3)ncc2Br)[C@H]2C=C[C@@H]1C2` [Example 95, (1S,2S,3R,4R)-3-[(5-bromo-2-{[1-(piperidin-4-yl)-1H-pyrazol-4-yl]amino}pyrimidin-4-yl)amino]bicyclo[2.2.1]hept-5-ene-2-carboxamide], at Aurora B, the Ki was less than 100 nM. In addition, the EC15 with NCI-H1299 cells is 100 to 1000 nM. For the same compound, the IC50 on KDR was less than 100 nM.

For the origin of these results see patent US8426408B2, “Pyrimidine inhibitors of kinases” (AbbVie Inc., priority 2009, dated 2013).
